Assays:
[1] = test system: Pseudomonas aeruginosa, reference ATCC 9027; assay: Preservative Efficacy Test (PET), Pseudomonas aeruginosa; type: cell-based; parameters: key to Gram− bacterium, Pseudomonas aeruginosa: −: No European pharmacopoeia criterion or USP criterion is met; +: for the coli: the USP criteria are met; ++: the European pharmacopoeia criteria A are met; conditions: additive in standard emulsion
Excerpt: (§1) A particular problem that must be solved by the invention is that of effectively protecting a pharmaceutical topical composition while at the same time meeting the criteria required by the European and U.S. pharmacopoeias. This is because, since the purpose of the pharmaceutical composition is to become a pharmaceutical product with a marketing authorization, it is imperative for the composition according to the invention to meet these criteria. In order to verify this point and to determine the antimicrobial action of the various mixtures of excipients according to the invention, a test protocol, known as the PET (Preservative Efficacy Test), exists. The PET comprises artificially inoculating the compositions with a known number of microorganisms, and then determining the decrease in the latter in the compositions tested, at given times. The protocol of this test is set up in order to abide by the recommendations of the European and U.S. pharmacopoeias. […] The mixture of excipients as preservatives, described herein, should therefore meet the criteria of these pharmacopoeias in the PET. This test comprises artificially contaminating aliquots of formulation by means of a calibrated inoculum of specific microorganisms and incubating the same at precise temperatures. Samples are taken from the contaminated aliquots at given time intervals in order to count the microorganisms. Bacteria: • Pseudomonas aeruginosa, reference ATCC 9027; NCIMB 8626; CIP 82.118. • Staphylococcus aureus, reference ATCC 6538; NCTC 10788; NCIMB 9518; CIP 4.83. Bacteria: • Escherichia coli, reference ATCC 8739. • Pseudomonas aeruginosa, reference ATCC 9027. • Staphylococcus aureus, reference ATCC 6538.

[2] = test system: Staphylococcus aureus, reference ATCC 6538; assay: Preservative Efficacy Test (PET), Staphylococcus aureus; type: cell-based; parameters: key to Gram+ bacterium, Staphylococcus aureus: −: No European pharmacopoeia criterion or USP criterion is met; +: for the coli: the USP criteria are met; ++: the European pharmacopoeia criteria A are met; conditions: additive in standard emulsion
Excerpt: as §1

[3] = test system: Bacteria and fungi (Escherichia coli, Pseudomonas aeruginosa, Staphylococcus aureus, Candida albicans, Aspergillus niger); assay: PET, overall compliance with European and U.S. pharmacopoeia criteria; type: cell-based; conditions: for Efficacy on the microorganisms as a whole / spectrum of efficacy: additive in standard emulsion; for USP criteria / Bacteria: European pharmacopoeia criteria: 30% by mass in an aqueous solution, without ethanol; for Bacteria: European pharmacopoeia criteria: bacteria only; for Solutions providing antimicrobial protection, Pharma Europe: EtOH concentration / Solutions providing antimicrobial protection, Pharma USP: EtOH concentration: ethanol combined with the humectant; for Solutions providing antimicrobial protection, Pharma Europe: EtOH concentration / Solutions providing antimicrobial protection, Pharma USP: EtOH concentration / Solutions providing antimicrobial protection, Pharma Europe: humectant concentration / Solutions providing antimicrobial protection, Pharma USP: humectant concentration: lotion-type aqueous solution, no preservative; for Solutions providing antimicrobial protection, Pharma Europe: humectant concentration / Solutions providing antimicrobial protection, Pharma USP: humectant concentration: humectant combined with ethanol; for Ethanol concentration to meet European pharmacopoeia criteria A: reduced from 25%; for Ethanol concentration to meet the USP criteria: reduced from 15%
Excerpt: A particular problem that must be solved by the invention is that of effectively protecting a pharmaceutical topical composition while at the same time meeting the criteria required by the European and U.S. pharmacopoeias. This is because, since the purpose of the pharmaceutical composition is to become a pharmaceutical product with a marketing authorization, it is imperative for the composition according to the invention to meet these criteria. In order to verify this point and to determine the antimicrobial action of the various mixtures of excipients according to the invention, a test protocol, known as the PET (Preservative Efficacy Test), exists. The PET comprises artificially inoculating the compositions with a known number of microorganisms, and then determining the decrease in the latter in the compositions tested, at given times. The protocol of this test is set up in order to abide by the recommendations of the European and U.S. pharmacopoeias. The test and also the recommendations of the European and U.S. pharmacopoeias are described in Example 1 to follow. The mixture of excipients as preservatives, described herein, should therefore meet the criteria of these pharmacopoeias in the PET.
This test comprises artificially contaminating aliquots of formulation by means of a calibrated inoculum of specific microorganisms and incubating the same at precise temperatures. Samples are taken from the contaminated aliquots at given time intervals in order to count the microorganisms.
It also makes it obligatory to study the reductions in population of the microorganisms introduced into the formulation according to two acceptability criteria.
Since the A criteria are the most strict, it are […] generally required that they be met.
In justified cases, when the A criteria cannot be complied with, for example owing to an increase in the risk of adverse reactions, the B criteria, which are less drastic, apply.
NI (Non-Increase) signifies that there must not be an increase in the number of microorganisms.
It imposes logarithmic reductions in the population of microorganisms which are different than that of the European pharmacopoeia.

[4] = test system: Escherichia coli, reference ATCC 8739; assay: Preservative Efficacy Test (PET), Escherichia coli; type: cell-based; parameters: key to Gram− bacterium, Esoherichia coli: −: No European pharmacopoeia criterion or USP criterion is met; +: for the coli: the USP criteria are met; ++: the European pharmacopoeia criteria A are met; conditions: additive in standard emulsion
Excerpt: as §1, with “•” for “• Pseudomonas aeruginosa, reference ATCC 9027; NCIMB 8626; CIP 82.118. • Staphylococcus aureus, reference ATCC 6538; NCTC 10788; NCIMB 9518; CIP 4.83. Bacteria: •”

[5] = test system: Candida albicans, reference ATCC 10231; assay: Preservative Efficacy Test (PET), Candida albicans; type: cell-based; parameters: key to Yeast, Candida albicans: −: No European pharmacopoeia criterion or USP criterion is met; +: for the coli: the USP criteria are met; ++: the European pharmacopoeia criteria A are met; conditions: additive in standard emulsion
Excerpt: (§2) A particular problem that must be solved by the invention is that of effectively protecting a pharmaceutical topical composition while at the same time meeting the criteria required by the European and U.S. pharmacopoeias. This is because, since the purpose of the pharmaceutical composition is to become a pharmaceutical product with a marketing authorization, it is imperative for the composition according to the invention to meet these criteria. In order to verify this point and to determine the antimicrobial action of the various mixtures of excipients according to the invention, a test protocol, known as the PET (Preservative Efficacy Test), exists. The PET comprises artificially inoculating the compositions with a known number of microorganisms, and then determining the decrease in the latter in the compositions tested, at given times. The protocol of this test is set up in order to abide by the recommendations of the European and U.S. pharmacopoeias. […] The mixture of excipients as preservatives, described herein, should therefore meet the criteria of these pharmacopoeias in the PET. This test comprises artificially contaminating aliquots of formulation by means of a calibrated inoculum of specific microorganisms and incubating the same at precise temperatures. Samples are taken from the contaminated aliquots at given time intervals in order to count the microorganisms. Fungi: • Candida albicans, reference ATCC 10231; NCPF 3179; IP 48.72. • Aspergillus niger, reference ATCC 16404; IMI 149007; IP 1431.83. Fungi: • Candida albicans, reference ATCC 10231. • Aspergillus niger, reference ATCC 16404.

[6] = test system: Aspergillus niger, reference ATCC 16404; assay: Preservative Efficacy Test (PET), Aspergillus niger; type: cell-based; parameters: key to Moulds, Aspergillus Niger: −: No European pharmacopoeia criterion or USP criterion is met; +: for the coli: the USP criteria are met; ++: the European pharmacopoeia criteria A are met; conditions: for Moulds, Aspergillus Niger: additive in standard emulsion at its given % (EDTA 0.15, citric acid 2, sodium ascorbate 2, tocopherol 0.05, BHT 1, propyl gallate 0.1, ascorbyl palmitate 1)
Excerpt: as §2

[7] = test system: microorganisms; conditions: J. J. Kabara; cited from earlier work
[8] = test system: Aspergillus niger; conditions: cited from earlier work
[9] = test system: Candida albicans; conditions: cited from earlier work

CCCCCCCCCCCCCCCC(=O)OC[C@H](O)[C@H]1OC(=O)C(O)=C1O [Ascorbyl palmitate]
Gram− bacterium, Pseudomonas aeruginosa [1]: ++ | Gram+ bacterium, Staphylococcus aureus [2]: ++ | Efficacy on the microorganisms as a whole / spectrum of efficacy [3]: bactericidal | Gram− bacterium, Esoherichia coli [4]: + | Yeast, Candida albicans [5]: − | Moulds, Aspergillus Niger [6]: −

Cc1cc(C(C)(C)C)c(O)c(C(C)(C)C)c1 [BHT, butylhydroxytoluene]
Gram− bacterium, Pseudomonas aeruginosa [1]: − | Gram+ bacterium, Staphylococcus aureus [2]: − | Gram− bacterium, Esoherichia coli [4]: − | Yeast, Candida albicans [5]: − | Moulds, Aspergillus Niger [6]: −

O.O.O=C([O-])CN(CCN(CC(=O)O)CC(=O)O)CC(=O)[O-].[Na+].[Na+] [EDTA, Disodium EDTA Dihydrate]
Gram− bacterium, Pseudomonas aeruginosa [1]: ++ | Inhibition of Pseudomonas aeruginosa, criteria met [1]: meeting European pharmacopoeia criteria A | Gram+ bacterium, Staphylococcus aureus [2]: − | Gram− bacterium, Esoherichia coli [4]: − | Yeast, Candida albicans [5]: − | Moulds, Aspergillus Niger [6]: −

CC(O)CO (centres unmarked) [PG, Propylene glycol]
USP criteria [3]: makes it possible to meet | Bacteria: European pharmacopoeia criteria [3]: meeting European pharmacopoeia criteria A | Solutions providing antimicrobial protection, Pharma Europe: EtOH concentration [3]: starting from 15% | Solutions providing antimicrobial protection, Pharma USP: EtOH concentration [3]: starting from 0% EtOH | Solutions providing antimicrobial protection, Pharma Europe: humectant concentration [3]: starting from 5% PG | Solutions providing antimicrobial protection, Pharma USP: humectant concentration [3]: starting from 30% PG | Ethanol concentration to meet European pharmacopoeia criteria A ([3]; with 10% of PG): 15% | Action on fungi, in particular Aspergillus niger ([6]; humectant alone, without ethanol): does not ensure a decrease in these microorganisms

CCCOC(=O)c1cc(O)c(O)c(O)c1 [Propyl gallate]
Gram− bacterium, Pseudomonas aeruginosa [1]: ++ | Inhibition of Pseudomonas aeruginosa, criteria met [1]: meeting European pharmacopoeia criteria A | Gram+ bacterium, Staphylococcus aureus [2]: − | Gram− bacterium, Esoherichia coli [4]: − | Yeast, Candida albicans [5]: − | Moulds, Aspergillus Niger [6]: −

O=C1O[C@H]([C@@H](O)CO)C([O-])=C1O.[Na+] [Sodium ascorbate]
Gram− bacterium, Pseudomonas aeruginosa [1]: − | Action on Staphylococcus aureus, criteria met [2]: meeting European pharmacopoeia criteria A | Gram+ bacterium, Staphylococcus aureus [2]: ++ | Action on Escherichia coli, criteria met [4]: meeting the USP criteria | Gram− bacterium, Esoherichia coli [4]: + | Yeast, Candida albicans [5]: − | Moulds, Aspergillus Niger [6]: −

CCO [ethanol]
Ethanol concentration in the aqueous mixture from which the bactericidal action meets European pharmacopoeia criteria A and the USP criteria ([3]; ethanol/water, bacteria): ≥ 15% | Ethanol concentration at which the fungicidal action meets the requirements for all the pharmacopoeias ([3]; ethanol/water, fungi): 25% | Ethanol concentration starting from which proliferation of microorganisms can be prevented [7]: ≥ 25 % (v/v)

OCC(O)CO [glycerol]
USP criteria [3]: does not meet | Bacteria: European pharmacopoeia criteria [3]: meet only European pharmacopoeia criteria B for bacteria | Solutions providing antimicrobial protection, Pharma Europe: EtOH concentration [3]: starting from 15% | Solutions providing antimicrobial protection, Pharma USP: EtOH concentration [3]: starting from 5% EtOH | Solutions providing antimicrobial protection, Pharma Europe: humectant concentration [3]: starting from 5% | Solutions providing antimicrobial protection, Pharma USP: humectant concentration [3]: starting from 10% | Ethanol concentration to meet European pharmacopoeia criteria A ([3]; with 5% by mass of glycerol): 15% | Ethanol concentration to meet the USP criteria ([3]; with 10% by mass of glycerol): 5%

COC(=O)c1ccc(O)cc1 [methylparaben]
Concentration that makes it possible to inhibit Aspergillus niger [8]: 1000 ppm | Concentration that makes it possible to inhibit Candida albicans [9]: 1000 ppm

CCCOC(=O)c1ccc(O)cc1 [propylparaben]
Concentration that makes it possible to inhibit Aspergillus niger [8]: 250 ppm | Concentration that makes it possible to inhibit Candida albicans [9]: 250 ppm

Polyethylene Glycol 400 [PEG 400]
Solutions providing antimicrobial protection, Pharma Europe: EtOH concentration [3]: starting from 10% | Solutions providing antimicrobial protection, Pharma USP: EtOH concentration [3]: starting from 5% EtOH | Solutions providing antimicrobial protection, Pharma Europe: humectant concentration [3]: starting from 20% | Solutions providing antimicrobial protection, Pharma USP: humectant concentration [3]: starting from 20% PEG | Ethanol concentration to meet the USP criteria ([3]; with 20% by mass of PEG 400): 5% | Ethanol concentration to meet European pharmacopoeia criteria A ([3]; with 20% by mass of PEG 400): 10%

Tocopherol
Gram− bacterium, Pseudomonas aeruginosa [1]: − | Gram+ bacterium, Staphylococcus aureus [2]: − | Efficacy on the microorganisms as a whole / spectrum of efficacy [3]: do not have a significant efficacy | Gram− bacterium, Esoherichia coli [4]: − | Yeast, Candida albicans [5]: − | Moulds, Aspergillus Niger [6]: −

Source: patent publication US8758782B2, “Excipient preservatives and pharmaceutical compositions comprised thereof” (Galderma Research & Development, priority 2007, dated 2014)
